Results on seven molecules are retold here after BindingDB's records for doi:10.1021/jm050965z (Millennium Pharmaceuticals, 2006).

This test can be described thus: Inhibition of I309-induced chemotaxis in L1.2 cells expressing CCR8.
Consider `O=C(NC1CCN(Cc2cccc(Oc3ccccc3Cl)c2)CC1)C1(c2ccccc2)CCNC1` (racemic) [(+/-) 3-phenyl-pyrrolidine-3-carboxylic acid {1-[3-(2-chloro-phenoxy)-benzyl]-piperidin-4-yl}-amide], for which the IC50 amounted to 22 nM.

`CCN1CCC(C(=O)NC2CCN(Cc3cccc(Oc4ccccc4Cl)c3)CC2)(c2ccccc2)CC1` [1-ethyl-4-phenyl-piperidine-4-carboxylic acid {1-[3-(2-chloro-phenoxy)-benzyl]-piperidin-4-yl}-amide] returned an IC50 of 43 nM. This IC50 is about 2-fold higher than that of the molecule before.

As for `CCN1CCC(C(=O)NC2CCN(Cc3cccc(Oc4ccccc4OC)c3)CC2)(c2ccccc2)CC1` [1-ethyl-4-phenyl-piperidine-4-carboxylic acid {1-[3-(2-methoxy-phenoxy)-benzyl]-piperidin-4-yl}-amide], the IC50 turned out to be 56 nM.

`CC(C)(C(=O)O)N1CCC(C(=O)NC2CCN(Cc3cccc(Oc4ccccc4Cl)c3)CC2)(c2ccccc2)C1` (configuration not stated) [2-(3-((1-(3-(2-chlorophenoxy)benzyl)piperidin-4-yl)carbamoyl)-3-phenylpyrrolidin-1-yl)-2-methylpropanoic acid]: the IC50 was 1 nM. This IC50 lies about 56-fold lower than the previous one.

Turning to `CC(C)(C(=O)O)N1CCC(C(=O)NC2CCN(Cc3cccc(Oc4ccccc4Cl)c3)CC2)(c2ccccc2)CC1` [2-(4-{1-[3-(2-chloro-phenoxy)-benzyl]-piperidin-4-ylcarbamoyl}-4-phenyl-piperidin-1-yl)-2-methyl-propionic acid], the IC50 was 4 nM.

`COc1ccccc1Oc1cccc(CN2CCC(NC(=O)C3(c4ccccc4)CCNCC3)CC2)c1` [4-phenyl-piperidine-4-carboxylic acid {1-[3-(2-methoxy-phenoxy)-benzyl]-piperidin-4-yl}-amide] yielded a 50% inhibitory concentration (IC50) of 11 nM. Against the preceding molecule, the IC50 is about 2.8-fold higher.

For `COc1ccccc1Oc1cccc(CN2CCC(NC(=O)Cc3ccccc3)CC2)c1` [N-{1-[3-(2-methoxy-phenoxy)-benzyl]-piperidin-4-yl}-2-phenyl-acetamide], the IC50 was 55 nM.

A word on the IC50: it is the concentration needed to halve the response being measured. Low values mean greater potency in that assay, high ones weaker potency in that assay.
